Laboratory results: paper PMC9533879 (European Journal of Medicinal Chemistry, 2021)

Legend:
[1] = system: Vaccinia virus (strain Copenhagen); details: for IC50: read-out: IC50 Vaccinia

3,5-Dimethyl-N^1-(4-(trifluoromethyl)benzoyl)adamantane-1-carbohydrazide [Compound 17]
CC50 (Vero cell culture): > 254 µM | SI (CC50/IC50) Vaccinia [1]: 30.9/>8.2 | IC50 [1]: 30.9 µM

3-Ethyl-N^1-(4-(trifluoromethyl)benzoyl)adamantane-1-carbohydrazide [Compound 18]
CC50 (Vero cell culture): 47 µM | SI (CC50/IC50) Vaccinia [1]: 12.53/3.75 | IC50 [1]: 12.5 µM

O=C(NC12CC3CC(CC(C3)C1)C2)c1ccc(C(F)(F)F)cc1 [Compound 5, N-(Adamantan-1-yl)-4-(trifluoromethyl)benzamide]
times less active than the reference compound tecovirimat [1]: 50

CCC12CC3CC(C1)CC(NC(=O)c1ccc(C(F)(F)F)cc1)(C3)C2 [Compound 6, N-(3-Ethylаdamantan-1-yl)-4-(trifluoromethyl)benzamide]
SI (CC50/IC50) Vaccinia [1]: 4.1/>68

CN(C(=O)c1ccc(C(F)(F)F)cc1)C12CC3CC(CC(C3)C1)C2 [Compound 7, N-(Adamantan-1-yl)-N-methyl-4-(trifluoromethyl)benzamide]
SI (CC50/IC50) Vaccinia [1]: 4.85/>61

O=C(NCC12CC3CC(CC(C3)C1)C2)c1ccc(Br)cc1 [Compound 9, N-((Adamantan-1-yl)methyl)-4-bromobenzamide]
SI (CC50/IC50) Vaccinia [1]: 8.3/28

O=C(NC1C2CC3CC(C2)CC1C3)c1ccc(Br)cc1 (centres unmarked) [Compound 11, N-(Adamantan-2-yl)-4-bromobenzamide]
SI (CC50/IC50) Vaccinia [1]: 3.06/>98

O=C(NNC(=O)C12CC3CC(CC(C3)C1)C2)c1ccc(C(F)(F)F)cc1 [Compound 16, N^1-(4-(Trifluoromethyl)benzoyl)adamantane-1-carbohydrazide]
CC50 (Vero cell culture): > 273 µM | SI (CC50/IC50) Vaccinia [1]: 1.07/>255

O=C(NNC(=O)c1ccc(C(F)(F)F)cc1)NC12CC3CC(CC(C3)C1)C2 [Compound 20, N^1-(Adamantan-1-yl)-2-(4-(trifluoromethyl)benzoyl)hydrazine-1-carboxamide]
SI (CC50/IC50) Vaccinia [1]: 36.26/2.6

C/C(=N\NC(=O)c1ccc(C(F)(F)F)cc1)C12CC3CC(CC(C3)C1)C2 [Compound 31, N^1-(1-(Adamantan-1-yl)ethylidene)-4-(trifluoromethyl)benzohydrazide]
SI (CC50/IC50) Vaccinia [1]: 10.55/>26

CC12CC3CC(C1)CC(NC(=O)c1ccc(C(F)(F)F)cc1)(C3)C2 [Compound 37]
SI (CC50/IC50) Vaccinia [1]: 8.98/>33

(rac)-N^1-(1-(Adamantan-1-yl)ethyl)-4-(trifluoromethyl)benzohydrazide [Compound 32]
CC50 (Vero cell culture): 14 µM | SI (CC50/IC50) Vaccinia [1]: 0.515/27 | IC50 [1]: 0.515 µM

N^1-(3-Ethyladamantan-1-yl)-4-(trifluoromethyl)benzohydrazide [Compound 36]
CC50 (Vero cell culture): 2.5 µM | SI (CC50/IC50) Vaccinia [1]: 1.66/1.5 | IC50 [1]: 1.66 µM

N^1-(5-Chloroadamantan-2-yl)-4-(trifluoromethyl)benzohydrazide [Compound 28]
CC50 (Vero cell culture): ~215 µM | SI (CC50/IC50) Vaccinia [1]: 3.52/61 | IC50 [1]: 3.52 µM

N^1-(Adamantan-1-yl)-4-(trifluoromethyl)benzohydrazide [Compound 35]
CC50 (Vero cell culture): 2.8 µM

N^1-(Adamantan-2-yl)-4-(trifluoromethyl)benzohydrazide [Compound 27]
CC50 (Vero cell culture): > 296 µM | SI (CC50/IC50) Vaccinia [1]: 2.8/>103 | IC50 [1]: 2.8 µM
